Results from patent US8858994B2, “Pharmaceutical formulation comprising ezetimibe” (Ratiopharm GmbH, priority 2007, dated 2014).

Columns and labels:
Type in all cases: physicochemical
[1] = Particle size determination according to Dry Powder Method (Malvern Master sizer S); details: ezetimibe used in Examples 1, 3 and 4, in µm (unit assumed)
Excerpt: a) Particle Size Determination According to “Dry Powder Method”.
Typical Instrumental Conditions:
Pour the small volume sample in Drypowder Sampler unit. Set the feed rate & air pressure with the help of adjustable knob. And start the measurement until to get the obscuration between 15 and 30. Pass the laser beam through the sample cell to measure the particle size distribution and record the data into a histogram then report the results at 10%, 50% and 90% level of particles size distribution.
Note: Ensure the Laser power should be more than 60%.

[2] = Particle size determination according to Wet Method (Malvern laser diffraction); details: dioctyl sulfosuccinate sodium salt in n-hexane
Excerpt: b) Particle Size Determination According to “Wet Method”. Ezetimibe Samples PSD Measurement by Malvern Laser Diffraction
A Malvern Laser Diffraction instrument was used to characterize the particle size distribution of ezetimibe. A Mastersizer S model equipped with a small cell dispersion unit MSI with a digital dispersion unit controller was used. The measurement was done using range lens 300RF (working range […]), beam length: 2.40 mm and presentation 3NHE. In this case, a solution of dioctyl sulfosuccinate sodium salt in n-hexane was used as a dilution medium. The measurement was started after 1 minute of recirculation after suspension addition into measurement cell at speed rate 2000+−10 rpm. The suspension was prepared of ˜0.1 g sample in solution 0.065% dioctyl sulfosuccinate sodium salt in n-hexane by vortex for 10 seconds and by sonication for 30 seconds. According to the accepted rules of Good Manufacture Procedures, the sample of ezetimibe is preferably measured after a successful blank measurement (% obscuration NMT 0.1%) is performed.

[3] = Determination of specific surface area (BET, single point); details: BET, single point; Sample no. 1 of example 5b)
Procedure: The specific surface area is determined by […] using BET calculation.
Specific surface area is measured by using the following Parameters: • Instrument: Pulse Chemisorbs 2700 (micromeritics) • Degassing: With out degassing • Sensitivity: No • Calculations: BET • Type: Single point system • Points: One • Sample cell: 6 cm^3 Procedure: • Sample no. 1 of example 5b) of known weight is taken in the sample transparent U shape glass tube. The sample is […] to remove all atmosphere at liquid nitrogen temperature (−196° C.). This is achieved by passing nitrogen through the sample tube, which is placed in a liquid nitrogen bath (−196° C.). The value divided by the weight of the catalyst/sample taken in the tube gives the surface area of the sample. BET Surface Area: • Surface area determination is an important factor in determining the catalyst performance, a method of assessing the efficiency of the catalyst support and promoter. […]
Is a straight line (in the range of P/P0:0.05-0.3) with slope (C−1)/(VmC) and intercept 1/VmC. By knowing these intercept and slope values calculated and further specific surface area can be calculated as follows Specific surface area (m^2/g)={[Vm×NA]/[22414×Wt]}×Am • Where, • Vm=monolayer volume in ml at STP • NA=Avogadro number • Wt=Weight of the catalyst • Am=mean cross sectional area of adsorbate molecule ([…] for N2

d(0.1) [1] | d(0.5) [1] | d(0.9) [1] | d(0.1) [2] [μm] | d(0.5) [2] [μm] | d(0.9) [2] [μm] | Specific surface area [3] [m^2/gram] | Structure (SMILES)
3.349 | 6.356 | 11.429 |  |  |  |  | O=C1[C@H](CC[C@H](O)c2ccc(F)cc2)[C@@H](c2ccc(O)cc2)N1c1ccc(F)cc1 [Sample 3 of Example 5a]
 |  |  | 2.02 | 4.11 | 8.21 |  | O=C1[C@H](CC[C@H](O)c2ccc(F)cc2)[C@@H](c2ccc(O)cc2)N1c1ccc(F)cc1 [Sample 4]
 |  |  | 2.70 | 6.76 | 16.47 |  | O=C1[C@H](CC[C@H](O)c2ccc(F)cc2)[C@@H](c2ccc(O)cc2)N1c1ccc(F)cc1 [Sample 5]
 |  |  |  |  |  | 1.24 | O=C1[C@H](CC[C@H](O)c2ccc(F)cc2)[C@@H](c2ccc(O)cc2)N1c1ccc(F)cc1 [ezetimibe, 1-(4-fluorophenyl)-3(R)-[3-(4-fluorophenyl)-3(S)-hydroxypropyl]-4(S)-(4-hydroxyphenyl)-2-azetidinone]
